According to US20150150765A1, “VOLATILE OIL FOR COSMETICS” (NOF Corporation, priority 2012, published 2015):
Blank lines part the entries; values can stand above or below the compound they belong to.

What was measured:
[1] = evaluation of barrier property (evaporated water quantity, Tewameter); type: in vivo; conditions: inside human forearm, two hours after applying 10 μL; blank = 100%; below 100% = improvement
Description: [Evaluation of Barrier Property]
With the volatile oil for external preparations for skin of the present invention, an evaporated water quantity in a stratum corneum was measured by the method shown below, and the evaporated water quantity (barrier property) was evaluated.
(Measuring Equipment) Tewameter™210 (from Courage+Kahazaka Co., Ltd.)
(§1) (Measuring Conditions) Temperature of 20° C., Humidity of 40%
(Testing Method) Samples are applied inside a human forearm, and an evaporated water quantity is measured after two hours.
(§2) (Applying Various Oils and Preparing Tests)
(§3) (1) The measurement site of a subject is washed with neutral detergent and tap water and then dried. The subject goes in the constant temperature and humidity chamber 30 min. before measurement to allow the measurement site to get used to the environment inside the chamber.
(2) Before applying samples, an evaporated water quantity is measured at a site to be applied that is marked in a circle 1 cm in diameter. […]
(4) The evaporated water quantity is measured at the measurement site two hours after being applied.
(Assessment) With the evaporated water quantity at measurement sites with no oil treatment (blanks) as 100%, the evaporated water quantity was evaluated after being treated with each sample. […]

[2] = evaluation of skin viscoelasticity (Cutometer); type: in vivo; conditions: inside human forearm, two hours after applying 10 μL; blank = 100%; above 100% = improvement
Description: [Evaluation of Skin Viscoelasticity]
With the volatile oil for external preparations for skin of the present invention, skin viscoelasticity was measured by the method shown below, and the skin viscoelasticity was evaluated.
(Measuring Equipment) Cutometer (from I.B.S. Co., Ltd.)
as §1
(Testing Method) Samples are applied inside a human forearm, and viscoelasticity is measured after two hours.
as §2, §3
(2) Before applying samples, viscoelasticity is measured at a site to be applied that is marked in a circle with 1 cm in diameter.
(3) Samples are dropped by 10 μL with a micropipette onto a measurement site that is marked in a circle with 1 cm in diameter, and are applied, to skin at the marking site.
(4) The viscoelasticity is measured at the measurement site two hours after being applied.
(Assessment) With the […] at measurement sites with no oil treatment (blanks) as 100%, skin viscoelasticity was evaluated after being treated with each sample. […]

[3] = evaluation of smoothness of skin (MIU friction resistance of skin surface); type: in vivo; conditions: coefficient of friction of skin, inside upper arm, before oil treatment = 100%; below 100% = improvement
Description: (§4) [Evaluation of Smoothness]
With the volatile oil for external preparations for skin of the present invention, coefficients of friction were measured by the following method, and the improvement of smoothness when applied to skin was evaluated.
Method of Evaluating Smoothness (Improvement after Treating Skin with Each Sample)
(§5) (Evaluation) MIU (Resistance: μ): Friction resistance of skin surface (Measuring Equipment) Friction tester (from Kato Tech Co., Ltd.) (Measuring Conditions) Measurement environment at 20° C.; 40% of Humidity; Constant temperature and humidity chamber; Measurement site: Inside upper arm; Contactor: Silicon rubber; Load: 25 gf
as §2, §3
(2) Coefficients of friction at sites to be applied are measured before applying samples. […]
(4) After the samples are applied, the coefficients of friction at applied sites are measured every thirty minutes.
(Assessment) With the coefficient of friction at measurement sites before oil treatment as 100%, smoothness was evaluated after being treated with each sample. […]

[4] = evaluation of smoothness of hair (MIU friction resistance of hair surface); design: species or system human; conditions: coefficient of friction of bleached hair, hair untreated with oil = 100%; below 100% = improvement; 20° C., 40% humidity
Description: as §4
With the volatile oil for hair cosmetics of the present invention, coefficients of friction were measured by the method shown below, and the improvement of smoothness, when applied to hair, was evaluated.
Method of Evaluating Smoothness (Improvement after Treating Bleached Hair with Each Sample)
as §5, with “hair” for “skin”, “Number of hair for measurement: ten;” for “Measurement site: Inside upper arm;”, “gf (Hair Employed) Bleached healthy human hair that was purchased” for “gf”
as §2
(§6) (1) One hair is picked out of the bundle of human hair. Each sample is dropped onto an index finger cushion from a syringe, and is blended with a thumb.
(§7) (2) The picked hair is pinched between the index finger and the thumb, and is coated with a sample from its root to the end.
(3) After the sample is coated, excess sample is wiped off with a waste cloth made of paper (Trade Name: Kim Wipes). […]
(Assessment) With the coefficient of friction of hair untreated with oil as 100%, smoothness is evaluated after being treated with each sample. […]

[5] = order of volatility, sample spread on filter paper and dried; type: physicochemical; conditions: 0.1 g on filter paper of 110 mm diameter; rank by speed to be completely dry (1 = fastest)
Description: It is noted that for the order of volatility in Table 1, 0.1 g of each sample was spread on a filter paper of 110 mm in diameter, and the weight was measured after drying for two hours. Ranking was based on the order of the speed that it took the samples to be completely dry and 0 g in weight.

hair tensile strength = conditions: breaking load of healthy human hair, untreated with oil (blank) = 100%; above 100% = improvement; 25° C.
Description: (Measuring Equipment) FUDOH RHEO METER RTC from Rheotech Co., Ltd. (Measuring Condition) Measurement environment: Inside constant temperature chamber at 25° C.
(Hair Employed) Healthy Human Hair
as §2
Beforehand, a bundle of unbleached healthy hair for measurement is placed in a constant temperature chamber for one day.
as §6, §7
(3) After the sample is coated, excess oil is wiped off with a waste cloth made of paper (Trade Name: Kim Wipes).
(4) After ten human hairs are treated with each sample, hair diameter is measured with a diameter.
(5) The hair is fixed with a jag of an equipment, and is given a load by lowering a base onto which the hair is fixed.
(6) The load is recorded when the hair is broken by the load.
(Assessment) With the tensile strength of hair untreated with oil (blank) as 100%, tensile strength was evaluated after being treated with each sample. If there is an improvement in comparison with the blank, the number would be higher than 100%.

[6] = evaluation of moisture retention (amount of moisture in stratum corneum, SKICON-200EX); type: in vivo; conditions: inside human forearm, two hours after applying 10 μL; blank = 100%; above 100% = improvement
Description: [Evaluation of Moisture Retention]
With the volatile oil for external preparations for skin of the present invention, the amount of moisture in a stratum corneum was measured by the method shown below, and the amount of moisture (moisture retention) was evaluated.
(Measuring Equipment) SKICON-200EX (from I.B.S. Co., Ltd.)
as §1
(Testing Method) Samples are applied inside a human forearm, and the amount of moisture is measured after two hours.
as §2, §3
(2) Before applying samples, the amount of moisture is measured at a site to be applied that is marked in a circle 1 cm in diameter.
(3) Samples are dropped by 10 μL with a micropipette onto a measurement site that is marked in a circle with 1 cm in diameter, and are applied to skin at the marking site.
(4) The amount of moisture is measured at the measurement site two hours after being applied.
(Assessment) With the amount of water at measurement sites with no oil treatment (blanks) as 100%, the amount of moisture was evaluated after being treated with each sample. […]

order of volatility [5]: 3
Compound: C[Si]1(C)O[Si](C)(C)O[Si](C)(C)O[Si](C)(C)O[Si](C)(C)O1 [compound 1]
evaporated water quantity (%) [1]: 106%
skin viscoelasticity (%) [2]: 95%
smoothness (%) [3]: 108%
smoothness (%) [4]: 83%
tensile strength (%) (hair tensile strength): 120%
water quantity in stratum corneum (%) [6]: 120%

order of volatility [5]: 1
Compound: CC(CC(C)(C)C)CC(C)(C)C [compound 2, 2,2,4,6,6-pentamethylheptane]
evaporated water quantity (%) [1]: 105%
skin viscoelasticity (%) [2]: 97%
smoothness (%) [3]: 104%
smoothness (%) [4]: 78%
tensile strength (%) (hair tensile strength): 125%
water quantity in stratum corneum (%) [6]: 112%
